{"source": "patent US9884814B2", "about": "“Acylguanidines for treating osteoarthritis” (Merck Patent GmbH, priority 2013, dated 2018)", "tested_on": "CAR-induced swelling, rat knee joint", "conditions": "intra-articular, 30 minutes before CAR, TAC 10 μg/joint", "method": "In order to induce an inflammation reaction, a carrageenan solution (CAR, 1%, 50 μl) was injected intra-articularly on one side into a rat knee joint. The uninjected side was used for control purposes. Six animals per group were used.\nThe specific cathepsin D inhibitors according to the invention were administered out intra-articularly 30 minutes before the CAR."}
{"smiles": "C[C@]12C=CC(=O)C=C1CC[C@H]1[C@@H]3C[C@@H](O)[C@](O)(C(=O)CO)[C@@]3(C)C[C@H](O)[C@@]12F", "note": "[TAC, Triamcinolone]", "values": [{"measurement": "reduction of CAR-induced swelling", "result": "capable of reducing the CAR-induced swelling"}]}
